Test results published in PubChem BioAssay (NCI).
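Protocol summary: plate cells (96-well), add compound at 5 concentrations, incubate 48 h, interpolate endpoints linearly. Abbreviation: GI50, concentration required for 50% inhibition of growth. TGI denotes the concentration required for complete inhibition of growth.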

Tests used:
Assay in all cases: DTP human tumour cell line panel, 48 h
SW-620 colon = test system: SW-620 colon
NCI-H522 lung = test system: NCI-H522 lung
MOLT-4 leukemia = test system: MOLT-4 leukemia
A498 renal = test system: A498 renal
SK-MEL-5 melanoma = test system: SK-MEL-5 melanoma
KM12 colon = test system: KM12 colon
OVCAR-8 ovarian = test system: OVCAR-8 ovarian
MCF7 breast = test system: MCF7 breast
M14 melanoma = test system: M14 melanoma
MDA-MB-468 breast = test system: MDA-MB-468 breast
HCT-116 colon = test system: HCT-116 colon
OVCAR-4 ovarian = test system: OVCAR-4 ovarian
SK-MEL-28 melanoma = test system: SK-MEL-28 melanoma
SNB-19 CNS = test system: SNB-19 CNS
HS 578T breast = test system: HS 578T breast
ACHN renal = test system: ACHN renal
K-562 leukemia = test system: K-562 leukemia
PC-3 prostate = test system: PC-3 prostate
NCI-H23 lung = test system: NCI-H23 lung
SN12C renal = test system: SN12C renal
HOP-62 NSCLC = test system: HOP-62 NSCLC
EKVX NSCLC = test system: EKVX NSCLC
SR leukemia = test system: SR leukemia
NCI-H226 lung = test system: NCI-H226 lung
CCRF-CEM leukemia = test system: CCRF-CEM leukemia
A549 NSCLC = test system: A549 NSCLC
OVCAR-5 ovarian = test system: OVCAR-5 ovarian
CAKI-1 renal = test system: CAKI-1 renal
NCI-H460 lung = test system: NCI-H460 lung

Q: How did the GI50 (SW-620 colon) turn out when `COc1ccc2[nH]c(O)c(N=Nc3nc(-c4ccc(Br)cc4)cs3)c2c1` was run?
A: 3.06 µM

Q: What about the TGI (SW-620 colon) of the same compound?
A: > 100 µM

Q: What about the GI50 (NCI-H522 lung) of the same compound?
A: 2.5 µM

Q: And the TGI (NCI-H522 lung)?
A: 39 µM

Q: What about the GI50 (MOLT-4 leukemia) of the same compound?
A: 3.33 µM

Q: And the TGI (MOLT-4 leukemia)?
A: > 100 µM

Q: What about the GI50 (A498 renal) of the same compound?
A: 2.38 µM

Q: And the TGI (A498 renal)?
A: 6.5 µM

Q: What about the GI50 (SK-MEL-5 melanoma) of the same compound?
A: 4.72 µM

Q: What about the TGI (SK-MEL-5 melanoma) of the same compound?
A: 30.9 µM

Q: What about the GI50 (KM12 colon) of the same compound?
A: 6.23 µM

Q: What about the TGI (KM12 colon) of the same compound?
A: > 100 µM

Q: What about the GI50 (OVCAR-8 ovarian) of the same compound?
A: 3.07 µM

Q: And the TGI (OVCAR-8 ovarian)?
A: 9.52 µM

Q: And the GI50 (MCF7 breast)?
A: 2.98 µM

Q: What about the TGI (MCF7 breast) of the same compound?
A: 79.8 µM

Q: And the GI50 (M14 melanoma)?
A: 2.81 µM

Q: And the TGI (M14 melanoma)?
A: 10.3 µM

Q: And the GI50 (MDA-MB-468 breast)?
A: 2.17 µM

Q: What about the TGI (MDA-MB-468 breast) of the same compound?
A: 5.81 µM

Q: And the GI50 (HCT-116 colon)?
A: 2.35 µM

Q: And the TGI (HCT-116 colon)?
A: 5.72 µM

Q: And the GI50 (OVCAR-4 ovarian)?
A: 1.73 µM

Q: And the TGI (OVCAR-4 ovarian)?
A: 3.23 µM

Q: And the GI50 (SK-MEL-28 melanoma)?
A: 2.01 µM

Q: And the TGI (SK-MEL-28 melanoma)?
A: 4.19 µM

Q: What about the GI50 (SNB-19 CNS) of the same compound?
A: 8.01 µM

Q: And the TGI (SNB-19 CNS)?
A: 52.4 µM

Q: And the GI50 (HS 578T breast)?
A: 7.34 µM

Q: And the TGI (HS 578T breast)?
A: > 100 µM

Q: What about the GI50 (ACHN renal) of the same compound?
A: 3.18 µM

Q: What about the TGI (ACHN renal) of the same compound?
A: 10.1 µM

Q: What about the GI50 (K-562 leukemia) of the same compound?
A: 4.35 µM

Q: What about the TGI (K-562 leukemia) of the same compound?
A: > 100 µM

Q: And the GI50 (PC-3 prostate)?
A: 5.22 µM

Q: And the TGI (PC-3 prostate)?
A: 60.1 µM

Q: What about the GI50 (NCI-H23 lung) of the same compound?
A: 3.51 µM

Q: What about the TGI (NCI-H23 lung) of the same compound?
A: 14.2 µM

Q: And the GI50 (SN12C renal)?
A: 3.16 µM

Q: What about the TGI (SN12C renal) of the same compound?
A: 11.1 µM

Q: And the GI50 (HOP-62 NSCLC)?
A: 6.51 µM

Q: And the TGI (HOP-62 NSCLC)?
A: 36 µM

Q: And the GI50 (EKVX NSCLC)?
A: 3.63 µM

Q: And the TGI (EKVX NSCLC)?
A: 27.9 µM

Q: What about the GI50 (SR leukemia) of the same compound?
A: 4.73 µM

Q: What about the TGI (SR leukemia) of the same compound?
A: > 100 µM

Q: What about the GI50 (NCI-H226 lung) of the same compound?
A: 4.44 µM

Q: And the TGI (NCI-H226 lung)?
A: 19.5 µM

Q: What about the GI50 (CCRF-CEM leukemia) of the same compound?
A: 6.56 µM

Q: What about the TGI (CCRF-CEM leukemia) of the same compound?
A: > 100 µM

Q: And the GI50 (A549 NSCLC)?
A: 3.07 µM

Q: And the TGI (A549 NSCLC)?
A: 12.9 µM

Q: What about the GI50 (OVCAR-5 ovarian) of the same compound?
A: 5.77 µM

Q: What about the TGI (OVCAR-5 ovarian) of the same compound?
A: 33.8 µM

Q: What about the GI50 (CAKI-1 renal) of the same compound?
A: 5.1 µM

Q: What about the TGI (CAKI-1 renal) of the same compound?
A: 32.7 µM

Q: What about the GI50 (NCI-H460 lung) of the same compound?
A: 2.48 µM

Q: And the TGI (NCI-H460 lung)?
A: 6.14 µM
